Assay results: patent publication US20190175557A1, “COMPOUNDS USEFUL FOR DECREASING INTERFERON LEVEL” (priority 2016, published 2019)
Read-outs that look alike come from different tables or passages of the source.

Assays:
HIV-stimulated pDC [1] = experiment: Activation markers and cytokine mRNA in HIV-stimulated pDC (RT-qPCR, flow cytometry); type: cell-based, human
HIV-stimulated pDC [2] = experiment: IFN-α / type I IFN production by HIV-stimulated purified pDC (ELISA); type: cell-based, human
HIV-stimulated pDC [3] = experiment: TRAIL relocalization to the membrane of HIV-stimulated pDC (3D microscopy); type: cell-based, human
Protocol: (§1) Cells were then incubated with anti-CXCR4 antibody (Biolegend, San Diego, Calif.) in saturation buffer PBS-BSA 0.5% for membrane staining or in permeabilizing buffer containing 1% saponin with monoclonal antibody anti-TRAIL (Biolegend, San Diego, Calif., USA). […] Nucleus was stained using DAPI (Molecular Probes, Paisley, UK). Slides were mounted with Fluoromount-G (eBioscience, CA, USA) and scanned with a Nikon Eclipse 90i Upright microscope (Nikon Instruments Europe, Badhoevedorp, The Netherlands) using a 100× Plan Apo VC piezo objective (NA 1.4) and Chroma bloc filters (ET-DAPI, ET-GFP) and were subsequently deconvoluted with a Meinel algorithm and 8 iterations and analyzed using Metamorph® (MDS Analytical Technologies, Winnersh, UK). TRAIL/DAPI/Overlay/Confocal plane: Representative 2D focal plan. Overlay with bright: Bright. Reconvolution overlays: 2D projections of the maximum intensity pixels along the Z-axis.
7 pictures were taken from each slide for each Z section framing the nucleus. Quantification of the colocalization in the cytoplasm of purified pDC using Mander's Coefficient was obtained after analyze by JACoP pluging in ImageJ.

CXCR4 [4] = biological target: T1, CXCR4 (Homo sapiens, UniProt P61073); experiment: CXCR4 internalization and co-localization in pDC (microscopy); type: cell-based; conditions: confocal microscopy
Protocol: as §1, with “Reconvolution overlays: 2D projections of the maximum intensity pixels along the Z-axis.” left out
In other cases, cells were cultured overnight in media alone then were washed in ice-cold PBS-BSA 0.2% and stained with CXCR4 antibody (R&D Systems) for 1 hour at 4° C. […] Data are expressed as the mean percentage ±SEM mean channel fluorescence intensity (MFI) values for residual surface expression and intracellular staining. […]
7 pictures were taken from each slide for each Z section framing the nucleus. Quantification of the colocalization in the cytoplasm of purified pDC using Mander's Coefficient was obtained after analyze by JACoP pluging in ImageJ. […]

pDC = experiment: Cytotoxicity of compounds on cultured pDC
CXCR4 [5] = biological target: T1, CXCR4; conditions: Jurkat cells, 1 mM, 4° C. for 30 min
flu-exposed human PBMC = type: cell-based
CXCR4 [6] = biological target: T1, CXCR4
H4R = H4R (Homo sapiens, UniProt Q9H3N8); type: cell-based; conditions: H4R siRNA, human primary pDC
[7] = test system: 129S8 mice infected with Influenza A virus strain X31 (H3N2); conditions: mouse, in vivo
[8] = test system: human Flu-activated primary PBMC; experiment: cells; type: cell-based
[9] = test system: HIV or LPS stimulated monocytes; experiment: IFN-γ mRNA in monocytes stimulated with HIV or LPS (RT-qPCR); type: cell-based; conditions: RT-qPCR normalized to RPL13A
Protocol: Data shown are representative of two independent experiments.
Monocytes were pre-incubated with clobenpropit (CB), IT1t or chloroquine before being activated by HIV and LPS. IFN-γ levels were measured by RT-qPCR and normalized to RPL13A mRNA expression.

[10] = test system: collagen-induced arthritis in DBA1/J mice; experiment: Therapeutic collagen-induced arthritis model in DBA1/J mice; type: in vivo, mouse; conditions: for inhibition of disease severity: Day 28-42, at termination (Day 42); for average AI (Arthritic Index): maximum AI=16
Protocol: 80 DBA1/J mice (male, 7-8 weeks) was received and placed in quarantine for 3 days with daily inspections. Ear tag mice for individual identification.
Individual mouse weights were recorded. Hind paw thickness were recorded by digital caliper. 80 mice subcutaneous were injected with collagen/CFA emulsion (0.05 ml/mouse; 100 μg/mouse collagens in CFA) using a 1 ml syringe fitted with a 25G needle. Mice returned to cages.
80 mice were boosted with collagen/ICFA emulsion. Then their individual weights were recorded.
Mice were scored for signs of arthritis:
7) Calculate Arthritic Index (AI) by addition of individual paw scores and record.
Mice with an AI score within a range of 2-6 were selected for assignment to groups for therapeutic dosing as in Table 4.
Begin intraperitoneal (IP) dosing once daily (QD) according to Table 4.
The compounds clobenpropit (CB) and IT1t were tested. CB and IT1t were stored at 4° C. […] These compounds were doses 7 days per week (Saturday and Sunday included) daily for 14 days.
Mice were weighed, scored for signs or arthritis, and hind paw thickness is measured by digital caliper three-times weekly (Monday, Wednesday and Friday). Any adverse reactions to treatment were recorded.
Termination: AI score were recorded for each limb. The paw thickness of the hind limbs is measured with digital caliper. Mice were anesthetized and exsanguinated into pre-chilled EDTA-tubes.
2) Plasma was assayed by ELISA for IL-1β, IL-6, TRAIL. Then, all limbs were collected.

[11] = test system: pristane-induced SLE in Balb/c mice; experiment: Pristane-induced systemic lupus erythematosus (SLE) model in Balb/c mice; type: in vivo, mouse; conditions: 3, 10, 30 mg/kg IP QD
Protocol: Receive and quarantine (SOP 560) 70 female Balb/C (20-25 g) mice and house in filter-topped cages supplied with autoclaved bedding.
The animals are weighed, ear tagged for individual identification and randomly assigned to 8 treatment groups of 8 animals each and two groups of 3 animals (for pre-tolerance at 30 mg/kg of survival).
The test items compounds clobenpropit (CB) and IT1t are stored at 4° C.
Mouse weights are recorded twice a week, and daily observations for clinical signs.
Collected sera are stored at −80° C. for measurements of autoantibody on weeks 4, 8 and 10. (Predose will kept at −80° C. for potential use). Anti-dsDNA level is a standard screening readout for identifying efficacy of test compounds in a SLE model.
Measurements: weeks 4, 8, 10: (1) autoantibody (anti-dsDNA), collagen and cytokines TNFα, IL-6 and TRAIL by ELISA and (2) ANA antibody by IFA.

[12] = Solubility of test compounds
[13] = test system: NK cells activated by K562 cells; experiment: IFN-γ, TNF-α and CD107a expression by NK cells activated by K562 cells (flow cytometry); type: cell-based; conditions: treated 1 hour, then activated by K562 cells
[14] = 3 mg/kg IP once daily, at termination (Day 42)
[15] = 10 mg/kg IP once daily, at termination
[16] = 30 mg/kg IP once daily, at termination

T1 sequence (P61073 whole entry): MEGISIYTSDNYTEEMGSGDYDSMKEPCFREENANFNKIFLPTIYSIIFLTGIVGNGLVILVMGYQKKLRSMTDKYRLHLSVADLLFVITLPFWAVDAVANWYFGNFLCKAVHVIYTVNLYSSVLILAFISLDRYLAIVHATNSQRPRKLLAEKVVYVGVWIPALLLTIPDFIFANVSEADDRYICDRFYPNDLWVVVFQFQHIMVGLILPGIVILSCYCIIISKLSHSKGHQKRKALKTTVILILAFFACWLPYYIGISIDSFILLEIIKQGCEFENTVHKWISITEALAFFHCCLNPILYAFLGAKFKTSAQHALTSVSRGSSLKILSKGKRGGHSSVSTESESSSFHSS
Chain of H4R (Q9H3N8 whole entry): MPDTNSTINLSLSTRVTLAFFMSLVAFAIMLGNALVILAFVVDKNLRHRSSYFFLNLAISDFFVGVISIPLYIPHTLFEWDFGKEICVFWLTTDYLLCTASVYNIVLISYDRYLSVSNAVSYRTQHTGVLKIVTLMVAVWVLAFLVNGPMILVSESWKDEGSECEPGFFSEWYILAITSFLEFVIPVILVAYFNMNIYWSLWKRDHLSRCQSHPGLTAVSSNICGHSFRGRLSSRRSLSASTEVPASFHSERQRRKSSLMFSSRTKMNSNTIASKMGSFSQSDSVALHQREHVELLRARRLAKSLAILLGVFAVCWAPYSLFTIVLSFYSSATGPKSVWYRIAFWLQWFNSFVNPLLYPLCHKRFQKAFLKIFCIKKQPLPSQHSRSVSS

Compound: CXCL12: CXCR4 natural ligand
- IFN-α/β mRNA expressions by HIV stimulated pDC (HIV-stimulated pDC [1]; 62.5 nM, pre-incubation 15 min, 30 min, 60 min): did not reduce
- type I IFN mRNA expression by HIV stimulated pDC (HIV-stimulated pDC [1]; 10 μM): did not inhibit

Compound: NCCc1cc(=O)oc2c3c4c(cc12)CCCN4CCC3 [FFN-511, FFN511]
- IFN type I production by HIV-stimulated pDC (HIV-stimulated pDC [2]; 50 μM): strongly reduced
- TRAIL localization to the cell membrane in HIV-stimulated pDC (HIV-stimulated pDC [3]): significantly inhibited
- iNOS or IL-15 gene expression (HIV-stimulated pDC [1]; HIV-1-stimulated pDC, RT-qPCR): neither CB nor FFN-511 affected
- transcription of virus-induced genes (TRAIL, IFNs, IL6, IL8, IL10, CXCL10, ISG56) induced in pDC by HIV-1 (HIV-stimulated pDC [1]; RT-qPCR profiling, normalized to RPL13A): dramatically inhibited
- co-localization with CXCR4 in pDC (CXCR4 [4]): strong degree of co-localization
- cytotoxic effect on pDC (pDC; 50 μM): without any obvious cytotoxic effect

Compound: NCCc1c[nH]cn1 [Histamine]
- binding of the CXCR4 antibody 12G5 on T cells (CXCR4 [5]): inhibited
- IFN-α/β and IFN-λ2/3 mRNA levels (flu-exposed human PBMC): significantly reduced
- Therapeutic index (Ratio TC50/EC50) (human primary PBMC): <1500
- TC50 (human primary PBMC; human): <2000 µM
- effect of CXCR4 gene silencing on the inhibitory effect on type I IFN and TRAIL (CXCR4 [6]; pDC stimulated by CXCR4-tropic HIV-1): suppressed
- inhibitory effect on pDC activation / IFN-α production by HIV-1 (HIV-stimulated pDC [2]; purified pDC, 10 μM): active
- effect of H4R knock down on inhibitory activity on IFN-α, IFN-β and TRAIL productions by HIV-stimulated pDC (H4R): did not block
- cytotoxicity on purified pDC (pDC; 10 μM): without obvious toxicity
- IFN-α, IFN-β and IFN-λ2/3 protein production in bronchioalveolar lavage (BAL) fluid [7]: a trend towards IFN reduction that was not statistically significant
- EC50 [8]: 1.4 ± 1 µM

Compound: CCN(CC)CCCC(C)Nc1ccnc2cc(Cl)ccc12 (stereo not drawn) [chloroquine]
- IFN-γ expression by HIV or LPS stimulated monocytes [9]: inhibit

Compound: CC1(C)CN2C(CS/C(=N\C3CCCCC3)NC3CCCCC3)=CSC2=N1 [IT1t]
- reduction in terminal plasma concentration of IL-1β ([10]; 3 mg/kg IP once daily): 49%
- reduction in terminal plasma concentration of TRAIL ([10]; 3 mg/kg IP once daily): 62%
- inhibition of disease severity ([10]; 3 mg/kg IP once daily): no amelioratory effect
- average AI (Arthritic Index) [10, 14]: 13.1
- reduction in terminal plasma concentration of IL-1β ([10]; 10 mg/kg IP once daily): 53%
- reduction in terminal plasma concentration of IL-6 ([10]; 10 mg/kg IP once daily): 30%
- reduction in terminal plasma concentration of TRAIL ([10]; 10 mg/kg IP once daily): 46%
- reduction in disease severity [10, 15]: 40%
- average AI (Arthritic Index) [10, 15]: 7.9
- reduction in terminal plasma concentration of IL-1β ([10]; 30 mg/kg IP once daily): 69%
- reduction in terminal plasma concentration of IL-6 ([10]; 30 mg/kg IP once daily): 66%
- reduction in terminal plasma concentration of TRAIL ([10]; 30 mg/kg IP once daily): 51%
- reduction in disease severity [10, 16]: 63%
- average AI (Arthritic Index) [10, 16]: 4.9
- disease progression over the dose range ([10]; 3, 10 and 30 mg/kg daily intraperitoneal injection): dose-dependent inhibition
- symptoms of pristane-Induced Systemic Lupus Erythematosus [11]: reduce symptoms
- ds-DNA level ([11]; compared to group 1 (vehicle)): inhibition
- Therapeutic index (Ratio TC50/EC50) (human primary PBMC): 33.5
- type I IFN reduction in CXCR4 siRNA-treated cells (CXCR4 [6]; pDC stimulated with HIV X4 or HIV R5, active with control siRNA): lost its biological activity
- solubility ([12]; PBS, aqueous buffer): > 50 mg/mL
- solubility ([12]; water): > 50 mg/mL
- IFN-γ, TNF-α and CD107a expression by NK cells [13]: decrease
- effect on cytokine production of activated pDC compared with CB (HIV-stimulated pDC [1]): stronger effect
- IFN-α, IFN-β and TRAIL expression by HIV-stimulated pDC (HIV-stimulated pDC [1]; 1 hour pre-culture, HIV X4): inhibited
- IFN-γ expression by HIV or LPS stimulated monocytes [9]: inhibit
- CC50 (in vitro; human): 238 ± 21 µM
- toxicity at the efficient concentrations (pDC): not toxic
- toxicity at higher concentrations (pDC; diluted in DMSO): some toxicity
- EC50 ([8]; read-out: EC50): 7.1 ± 1 µM

Compound: c1cc(CN2CCCNCCNCCCNCC2)ccc1CN1CCCNCCNCCCNCC1 [AMD3100]
- type I IFN and TRAIL expression by HIV-activated pDC, compound alone (HIV-stimulated pDC [1]): did not block
- effect on biological activities of histamine and CB on HIV activated-pDC (HIV-stimulated pDC [1]; pre-incubation 1 hour (20 μM) before histamine or CB): drastically abolished

Compound: NCCc1c[nH]c2ccc(O)cc12 [Serotonin, serotonin]
- CC50 (in vitro): 1500 ± 54 µM

Compound: C[C@]12C=CC(=O)C=C1CC[C@@H]1[C@@H]2[C@@H](O)C[C@@]2(C)[C@H]1CC[C@]2(O)C(=O)CO [prednisolone]
- reduction in terminal plasma concentration of IL-1β ([10]; 3 mg/kg IP once daily): 62%
- reduction in terminal plasma concentration of IL-6 ([10]; 3 mg/kg IP once daily): 79%
- reduction in terminal plasma concentration of TRAIL ([10]; 3 mg/kg IP once daily): 72%
- inhibition of disease severity ([10]; 3 mg/kg IP once daily): 82%
- average AI (Arthritic Index) [10, 14]: 2.4

Compound: NCCCNCCCCNCCCN [spermin, spermine]
- IFN-γ, TNF-α and CD107a expression by NK cells [13]: decrease
